Measurements published in patent US10590392B2, “Generation of airway epithelial organoids from human pluripotent stem cells” (TRUSTEES OF BOSTON UNIVERSITY, priority 2017, dated 2020).
Entries after “also recorded” stand apart in the source; their conditions may differ.

How the values were obtained:
[1] = test system: 7XTCF-mCherry Wnt reporter in FG293 cells; experiment: Lentiviral 7XTCF-mCherry Wnt reporter dose-response in FG293 cells; conditions: 3 μM CHIR
[2] = test system: iPSC-derived NKX2-1+ lung progenitors; experiment: Immunofluorescence and intracellular flow cytometry for NKX2-1, SOX2, SOX9, P63 coexpression at day 19; assay type: cell-based, human
Description: Cells were harvested for intracellular flow cytometry and fixed for 10-20 minutes at 37° C. in fresh 1.6% paraformeldehyde. Cells were permeabilized with Cell Permeabilization Buffer (eBioscience, San Diego, Calif.) containing 4% normal donkey serum (Sigma) in PBS and stained with primary antibody for NKX2-1 (Abcam # ab76013, rabbit EP1584Y, 1:100) or a conjugated antibody for SOX2 (BD #561506, PerCP-Cy5.5 conjugated, mouse O30-678, 1:100). Anti-NKX2-1 antibody was detected by secondary antibody stainings with either Cy3, Alexa Fluor 488, or Alexa Fluor 647 fluorophore-conjugated secondary antibodies (AffiniPure Donkey Anti-Rabbit IgG (H+L); 1:500; Jackson ImmunoResearch, West Grove, Pa.). Stained cells were analyzed on a FacsCalibur instrument (BD Biosciences, San Jose, Calif.) and data was analyzed with FlowJo software (Ashland, Oreg.).
Cells for immunofluorescence microscopy were cultured on glass coverslips (ThermoFisher). Cultured cells were fixed with fresh 4% paraformeldehyde and stained as described previously(Kurmann et al., 2015). Briefly, cells were permeabilized with 0.3% Triton-X (Sigma) for 10 minutes at room temperature then blocked with 4% normal donkey serum (Sigma) for 30 minutes at room temperature. Cells were incubated with primary antibodies (detailed in Key Resources Table 3) overnight at 4° C., washed, and incubated with secondary antibodies for 30-60 minutes at room temperature. All secondary antibodies were conjugated to Alexa Fluor 488, Cy3, or Alexa Fluor 647 (Jackson Immunoresearch, 1:500). After antibody staining, nuclei were stained with Hoescht dye (ThermoFisher, 1:500). Coverslips with cells were mounted on glass slides using Prolong Diamond Anti-Fade Mounting Reagent (ThermoFisher) and imaged on a Nikon (Tokyo, Japan) deconvolution microscope.
Quantification of nuclear colocalization was performed using Nikon NIS Elements software using the Object Count function. 3-5 areas from each slide were analyzed for each replicate. The total image area where NKX2-1 and SOX2 or P63 overlapped was divided by the area containing only the NKX2-1 stain.

[3] = test system: iPSC-derived NKX2-1GFP+ lung progenitors; experiment: Post-specification patterning of hPSC-derived lung progenitors, treatment day 15 to 19, RT-qPCR/flow cytometry of NKX2-1GFP+ cells; assay type: cell-based, human
Description: Measurement of mRNA expression by reverse transcriptase quantitative real time PCR (RT-qPCR) was performed as previously described(Longmire et al., 2012). Briefly, RNA was extracted from cells using a QIAzol Lysis Reagent (Qiagen, Venlo, Netherlands) and 150 ng of RNA was transcribed to cDNA using reverse transcription reagents (Applied Biosystems). Real time PCR (qPCR) was performed using TaqMan Fast Universal PCR Master Mix (ThermoFisher) and TaqMan (Applied Biosystems) reagents. The cDNA was diluted 1:3 and 2 μL of cDNA was added to each 25 μL (for Applied Biosystems StepOne 96-well System) or 12.5 μL (for Applied Biosystems QuantStudio7 384-well system) qPCR reaction. Each sample was run in technical triplicates and cycle (Ct) values were averaged between triplicates for analysis. Relative gene expression, normalized to 18S control, was calculated as fold change in 18S-normalized gene expression, compared to baseline, using the 2^(−ΔΔCT) method. Baseline, defined as fold change=1, was set to undifferentiated iPSC levels, or if undetected, a cycle number of 40 was assigned to allow fold change calculations. Adult lung control RNA was extracted from a normal lung biopsy sample. Primers were all TaqMan probes purchased from Applied Biosystems. Specifics of primers used are detailed in Table 1.
Day 14-16 cells from the lung progenitor directed differentiation protocol were harvested with 0.05% Trypsin-EDTA (Invitrogen) and replated in clumps in either Matrigel-coated tissue culture dishes in two-dimensional culture or in three-dimensional Matrigel drops. Matrigel drops were formed by resuspending cell clumps directly in undiluted Matrigel matrix, pipetting 50-100 μL into each well, and allowing the Matrigel/cell mixture to gel for 30 minutes at 37° C. Cell drops were then covered completely with growth medium.
Post-specification culture conditions were determined by the addition of growth factors to cSFDM. For patterning experiments, growth factors were added to a base media containing 10 ng/mL rhFGF10 (“Base”) and additional factors detailed in the results text. For concentrations of growth factors required for each experiment, see Table 2. Cells were additionally cultured with 10 μM Y-27632 (Tocris) for 24 hours after replating. Doses of growth factors were determined based on previously published directed differentiation protocols (Huang et al., 2013; Kurmann et al., 2015; Longmire et al., 2012) as well as dose-response experiments using 7XTCF lentiviral reporters for CHIR99021 (Figure S2d-e). […]
To test whether the inventors could efficiently induce a proximal vs distal program in iPSC-derived lung progenitors, the inventors modulated key developmental pathways beginning on day 15 of differentiation in our model system (FIG. 1C-1E), and monitored changes in SOX2 and SOX9 expression that are due to coordinated proximal vs distal patterning changes in purified NKX2-1^GFP+ cells within 4 days of treatment. At day 15, post-lung specification, the inventors cultured cells in a base media of “low dose” (10 ng/mL) FGF10 to promote proliferation without strongly inducing patterning(Volckaert et al., 2013). From this base media, the inventors stimulated the following pathways: Wnt signaling via the potent GSK3β inhibitor CHIR99021, hereafter CHIR; FGF signaling using FGF2 or high dose (100 ng/mL) FGF10; BMP signaling using BMP4; and TGFβ signaling using TGFβ

[4] = test system: iPSC-derived anterior foregut endoderm cells; experiment: Lung specification from anterior foregut endoderm with or without CHIR (NKX2-1GFP flow cytometry, 7XTCF-mCherry reporter); assay type: cell-based, human
[5] = NKX2-1GFP+ sorted cells on day 19 after treatment day 15-19, vs base media (10 ng/mL FGF10), RT-qPCR
[6] = in response to CHIR withdrawal day 15-19, within 4 days

## Cc1c[nH]c(-c2cnc(NCCNc3ccc(C#N)cn3)nc2-c2ccc(Cl)cc2Cl)n1 [CHIR, CHIR99021]
[1]
  Wnt activation (lentiviral TCF reporter): induce Wnt activation
  cytotoxicity: without significant cytotoxicity
[2]; CHIR withdrawal day 15-19 (FGF10 alone) vs CHIR, immunofluorescence
  cells co-expressing NKX2-1 and P63: increased frequencies; also recorded: significantly increased coexpression
[2]; CHIR withdrawal day 15-19 vs CHIR
  percentage of cells coexpressing NKX2-1 and SOX2: significantly higher percentage; also recorded: small but significant increase
[2]; CHIR-treated day 15-19, intracellular flow cytometry, without CHIR 68.0±4.1%
  NKX2-1+ population expressing SOX2: 54.9±5.5%
[2]; day 19, with CHIR (also without CHIR)
  SOX2+ cells among NKX2-1+ cells: > 50%
[2]; sustained CHIR day 15-19, triple immunostaining, 4 days after withdrawal of CHIR <40%
  NKX2-1+ cells that were SOX9+: > 90%
[3]; CHIR withdrawal day 15-19, day 19
  expression of Wnt signaling responsive genes LEF1, NKD1, AXIN2: reduced expression
[3]; CHIR withdrawal day 15-19, day 19, NKX2-1+ cells
  lentiviral TCF-driven reporter (7XTCF-mCherry) expression: reduced
[3]; [5]
  SCGB3A2 mRNA expression: decreased expression
  SOX2 mRNA expression: significantly decreased
  SOX9 mRNA expression: increased
[3]; [6]
  expression of distal markers SOX9 and ETV5: downregulated; also recorded: decreased expression
  expression of proximal airway markers (SCGB3A2, TP63/P63, MUC5AC): upregulated; also recorded: significantly increased expression
[3]; withdrawal of CHIR from day 15 to 19, flow cytometry
  percentage of NKX2-1GFP+ cells by day 19: significantly decreased percentage
[4]; cells differentiated without CHIR to day 15
  rescue of NKX2-1GFP expression by later addition: could not be rescued
[4]; presence of CHIR vs without, as early as 48 h after initiation of specification, maintained until at least day 15
  NKX2-1GFP expression during lung specification: significantly higher levels
[4]; specification media with CHIR vs vehicle alone, normalized to Ef1aL-mCherry
  7TC (7XTCF-mCherry) reporter expression: rapid upregulation
